Laboratory results: patent US20250346593A1, “IMIDAZO(1,2-1)PYRIDINE DERIVATIVES AS RIPK2 INHIBITORS” (Interline Therapeutics, Inc., priority 2022, published 2025)
Read-outs that look alike come from different tables or passages of the source.

Key:
[1] = tested on: NF-κB pathway (SEAP) in THP1-Dual cells; assay: THP-1 Dual cell SEAP assay (L18-MDP stimulated); type: cell-based; settings: Homo sapiens, THP1-Dual, read-out: NFkB THP1 IC50
[2] = molecular target: GST-RIPK2 fusion protein (human RIPK2 amino acids 1-310) (Homo sapiens (Human), UniProt O43353); assay: RIPK2 binding competition assay (TR-FRET, Tracer 199)
[3] = read-out: RIPK2 IC50, RIPK2 binding competition assay

Chain of GST-RIPK2 fusion protein (human RIPK2 amino acids 1-310) (O43353 1-310): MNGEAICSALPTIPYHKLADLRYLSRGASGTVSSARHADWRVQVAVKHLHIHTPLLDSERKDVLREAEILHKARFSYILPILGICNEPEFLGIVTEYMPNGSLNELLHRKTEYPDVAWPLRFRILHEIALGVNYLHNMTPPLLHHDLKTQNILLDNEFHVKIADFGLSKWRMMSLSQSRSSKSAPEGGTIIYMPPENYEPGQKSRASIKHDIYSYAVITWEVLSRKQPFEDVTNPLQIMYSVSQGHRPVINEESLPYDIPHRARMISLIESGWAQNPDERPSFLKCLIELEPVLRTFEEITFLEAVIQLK

Structure (SMILES)	IC50 [1]	IC50 [2]	IC50 [2, 3]
COc1cn2ncc(-c3cnc(N)c(F)c3)c2cc1S(=O)(=O)C(C)(C)C [Example 97, 5-(5-(tert-butylsulfonyl)-6-methoxypyrazolo[1,5-a]pyridin-3-yl)-3-fluoropyridin-2-amine]	250 to 1000 nM	2.5 to 20 nM	
COc1cc2ncc(-c3cnc(N)c(C(F)F)c3)n2cc1S(=O)(=O)C(C)(C)C [Example 98, 5-(6-(tert-butylsulfonyl)-7-methoxyimidazo[1,2-a]pyridin-3-yl)-3-(difluoromethyl)pyridin-2-amine]	> 1000 nM		> 20 nM
COc1cc2ncc(-c3ccc(N)nc3Cl)n2cc1S(=O)(=O)C(C)(C)C [Example 99, 5-(6-(tert-butylsulfonyl)-7-methoxyimidazo[1,2-a]pyridin-3-yl)-6-chloropyridin-2-amine]	> 1000 nM		> 20 nM
COc1cn2ncc(-c3cc(F)c(N)nc3F)c2cc1S(=O)(=O)C(C)(C)C [Example 100, 5-(5-(tert-butylsulfonyl)-6-methoxypyrazolo[1,5-a]pyridin-3-yl)-3,6-difluoropyridin-2-amine]	250 to 1000 nM	2.5 to 20 nM	
COc1cc2ncc(-c3ccc(N4CCOCC4)nc3F)n2cc1S(=O)(=O)C(C)(C)C [Example 101, 4-(5-(6-(tert-butylsulfonyl)-7-methoxyimidazo[1,2-a]pyridin-3-yl)-6-fluoropyridin-2-yl)morpholine]	> 1000 nM		> 20 nM
COc1cc2ncc(-c3cc(Cl)c(N)nc3OC)n2cc1S(=O)(=O)C(C)(C)C [Example 102, 5-(6-(tert-butylsulfonyl)-7-methoxyimidazo[1,2-a]pyridin-3-yl)-3-chloro-6-methoxypyridin-2-amine]	250 to 1000 nM	2.5 to 20 nM	
COc1cc2ncc(-c3cnc(N)cn3)n2cc1S(=O)(=O)C(C)(C)C [Example 103, 5-(6-(tert-butylsulfonyl)-7-methoxyimidazo[1,2-a]pyridin-3-yl)pyrazin-2-amine]	> 1000 nM		> 20 nM
COc1cn2ncc(-c3cc(OC)c(N)nc3F)c2cc1S(=O)(=O)C(C)(C)C [Example 104, 5-(5-(tert-butylsulfonyl)-6-methoxypyrazolo[1,5-a]pyridin-3-yl)-6-fluoro-3-methoxypyridin-2-amine]	> 1000 nM	2.5 to 20 nM	
COc1cn2ncc(-c3cc(Cl)c(N)nc3F)c2cc1S(=O)(=O)C(C)(C)C [Example 105, 5-(5-(tert-butylsulfonyl)-6-methoxypyrazolo[1,5-a]pyridin-3-yl)-3-chloro-6-fluoropyridin-2-amine]	50 to 250 nM	2.5 to 20 nM	
COc1cc2ncc(-c3cc(F)c(N)nc3OC)n2cc1S(=O)(=O)C(C)(C)C [Example 106, 5-(6-(tert-butylsulfonyl)-7-methoxyimidazo[1,2-a]pyridin-3-yl)-3-fluoro-6-methoxypyridin-2-amine]	250 to 1000 nM	2.5 to 20 nM	
COc1cc2ncc(-c3cc(C#N)c(N)nc3F)n2cc1S(=O)(=O)C(C)(C)C [Example 107, 2-amino-5-(6-(tert-butylsulfonyl)-7-methoxyimidazo[1,2-a]pyridin-3-yl)-6-fluoronicotinonitrile]	> 1000 nM	2.5 to 20 nM	
COc1cc2ncc(-c3ccc(N)nc3C#N)n2cc1S(=O)(=O)C(C)(C)C [Example 108, 6-amino-3-(6-(tert-butylsulfonyl)-7-methoxyimidazo[1,2-a]pyridin-3-yl)picolinonitrile]	> 1000 nM		> 20 nM
COc1cc2ncc(-c3cnc(N)c(C)n3)n2cc1S(=O)(=O)C(C)(C)C [Example 109, 5-(6-(tert-butylsulfonyl)-7-methoxyimidazo[1,2-a]pyridin-3-yl)-3-methylpyrazin-2-amine]	> 1000 nM		> 20 nM
COc1cn2ncc(-c3cc(C#N)c(N)nc3F)c2cc1S(=O)(=O)C(C)(C)C [Example 110, 2-amino-5-(5-(tert-butylsulfonyl)-6-methoxypyrazolo[1,5-a]pyridin-3-yl)-6-fluoronicotinonitrile]	> 1000 nM	2.5 to 20 nM	
COc1cc2ncc(-c3cc(F)c(N)c(C)c3F)n2cc1S(=O)(=O)C(C)(C)C [Example 111, 4-(6-(tert-butylsulfonyl)-7-methoxyimidazo[1,2-a]pyridin-3-yl)-3,6-difluoro-2-methylaniline]	50 to 250 nM	1 to 2.5 nM	
CCOc1nc(N)c(F)cc1-c1cnc2cc(OC)c(S(=O)(=O)C(C)(C)C)cn12 [Example 112, 5-(6-(tert-butylsulfonyl)-7-methoxyimidazo[1,2-a]pyridin-3-yl)-6-ethoxy-3-fluoropyridin-2-amine]	> 1000 nM	2.5 to 20 nM	
COc1cc2ncc(-c3cc(F)c(N)nc3OC(C)C)n2cc1S(=O)(=O)C(C)(C)C [Example 113, 5-(6-(tert-butylsulfonyl)-7-methoxyimidazo[1,2-a]pyridin-3-yl)-3-fluoro-6-isopropoxypyridin-2-amine]	> 1000 nM		> 20 nM
CCOc1cn2ncc(-c3cc(Cl)c(N)nc3F)c2cc1S(=O)(=O)C(C)(C)C [Example 114, 5-(5-(tert-butylsulfonyl)-6-ethoxypyrazolo[1,5-a]pyridin-3-yl)-3-chloro-6-fluoropyridin-2-amine]	50 to 250 nM	1 to 2.5 nM	
CCOc1cn2ncc(-c3cc(F)c(N)nc3F)c2cc1S(=O)(=O)C(C)(C)C [Example 115, 5-(5-(tert-butylsulfonyl)-6-ethoxypyrazolo[1,5-a]pyridin-3-yl)-3,6-difluoropyridin-2-amine]	250 to 1000 nM	2.5 to 20 nM	
CC(C)(C)S(=O)(=O)c1cn2c(-c3cc(F)c(N)nc3F)cnc2cc1OC(F)F [Example 116, 5-(6-(tert-butylsulfonyl)-7-(difluoromethoxy)imidazo[1,2-a]pyridin-3-yl)-3,6-difluoropyridin-2-amine]	> 1000 nM	2.5 to 20 nM	
CCOc1cc2ncc(-c3cnc(N)c(F)c3)n2cc1S(=O)(=O)C(C)C [Example 117, 5-[6-ethoxy-5-(isopropylsulfonyl)-1,3a-diaza-3-indenyl]-3-fluoro-2-pyridylamine]	> 1000 nM		> 20 nM
CCOc1cc2ncc(-c3cc(Cl)c(N)nc3F)n2cc1S(=O)(=O)C(C)C [Example 118, 3-chloro-5-[6-ethoxy-5-(isopropylsulfonyl)-1,3a-diaza-3-indenyl]-6-fluoro-2-pyridylamine]	250 to 1000 nM	2.5 to 20 nM	
CCOc1cc2ncc(-c3cc(F)c(N)nc3F)n2cc1S(=O)(=O)C(C)C [Example 119, 5-[6-ethoxy-5-(isopropylsulfonyl)-1,3a-diaza-3-indenyl]-3,6-difluoro-2-pyridylamine]	> 1000 nM	2.5 to 20 nM	
CCOc1cc2ncc(-c3ccc(N)nc3F)n2cc1S(=O)(=O)C(C)C [Example 120, 5-[6-ethoxy-5-(isopropylsulfonyl)-1,3a-diaza-3-indenyl]-6-fluoro-2-pyridylamine]	> 1000 nM		> 20 nM
Nc1nc(F)c(-c2cnc3ccccn23)cc1F [Example 121, 5-(1,3a-diaza-3-indenyl)-3,6-difluoro-2-pyridylamine]	> 1000 nM		> 20 nM
COc1cc2ncc(-c3cc(F)c(N)nc3F)n2cc1C1(F)CCN(C)CC1 [Example 122, 3,6-difluoro-5-[5-(4-fluoro-1-methyl-4-piperidyl)-6-methoxy-1,3a-diaza-3-indenyl]-2-pyridylamine]	> 1000 nM		> 20 nM
